These results are taken from publication PMC8287724, “Reducing Auditory Nerve Excitability by Acute Antagonism of Ca^2+-Permeable AMPA Receptors” (Frontiers in Synaptic Neuroscience, 2021).

Values joined by “and” are separate entries in the source; they are usually repeats but may differ in a detail not shown here. Equal values may be shown once. Read-outs that look alike come from different tables or passages of the source.

The half-life is the time needed for the level to fall by half in the phase considered.

This data set in a line: Drug levels in blood, perilymph and CSF after IP injection (LC/MS). Format: in vivo, guinea pig. The note with it: for Kp / half-life: NIH-strain, pigmented, guinea pig; for Kp: ip; for half-life: blood, in vivo, IP injection: IEM-1460 13.5 mg/kg, IEM-1925 8 mg/kg, estimated from PK data, read-out: elimination half-life in blood. On the procedure:
After at least 30 min of baseline data, 1 mL of Lactated Ringer's was injected into the peritoneal space of the guinea pig as a vehicle control. Then, 13.5 mg/kg IEM-1460 or 8 mg/kg IEM-1925 in Lactated Ringer's was injected into the peritoneal space of the guinea pig. The entire experiment took ~3 h to complete: 1 h for anesthetic induction and surgery, 30 min for sound calibration and CAP threshold measurements, and 2 h for drug delivery, DPOAE and CAP measurements. After collection of perilymph and CSF, the animal was euthanized via saturated KCl delivered directly into the jugular vein.
General surgical scissors were used to clip the toenail at a 45° angle to collect blood with a premarked glass capillary tube during the baseline period and after drug injection. The exact volume was determined by measurement of the fluid meniscus in a calibrated capillary tube. […] Complete details used to perform apical fluid sampling are presented elsewhere and are only briefly provided here (Mynatt et al., [2006]). Similar to the apical cochlear fenestration used to deliver drugs (described above), the mucosa on the cochlea was cleared from two apical turns using a small cotton swab, and the bone at the apex was allowed to dry. A droplet of thin cyanoacrylate adhesive was applied and cup formed over the apex with silicone adhesive. A small perforation (50–100 μm diameter) was then made in the bone over scala vestibuli at the apex using a 30° pick. Upon perforation, fluid immediately started emerging, driven by intralabyrinthine pressure from CSF, and formed a bead within the hydrophobic silicone cup. A calibrated 5 μL capillary micropipette (VWR #5342-706, S. Plainfield, NJ) was held by hand in contact with the fluid at the apex, so that fluid was drawn into the capillary in ~30 s. The exact volume was determined by measurement of the fluid meniscus. Perilymph from the opposite ear was sampled prior to euthanizing the animal, then ~2 μL of CSF was aspirated by inserting a micropipette through the dura mater into the cisterna magna. After the fluid meniscus from the capillary tube was measured, the capillary tube was then flushed with 25.0 μL 50:50 methanol-water solvent to ensure that all the sample was collected.
The concentration of IEM-1460 in perilymph, blood, and CSF was analyzed using LC-MS (Confluence Life Sciences, St. Louis, MO). LC-MS-grade acetonitrile, LC-grade methanol, formic acid, sodium hydroxide 0.1 M, perfluoroheptanoic acid, formic acid, and hydrochloric acid were purchased from Sigma-Aldrich (USA). Deionized water (R > 18 MΩ/cm, TOC <10 ppb) was used throughout all these experiments. IEM-1460 and IEM-1925 were purchased from Tocris Bioscience (Bristol, UK). A 10 mM stock solution was made for both IEM-1460 and IEM-1925 in 50% aqueous methanol. For calibration of the specific compound concentration in the tested matrix (i.e., plasma or CSF/perilymph), a set of standard solutions were prepared by diluting concentrated stock solutions with 50% aqueous methanol into guinea pig plasma matrix or artificial perilymph (in mM: 127.5 NaCl, 3.5 KCl, 25 NaHCO3, 1.3 CaCl2, 1.2 MgCl2, 0.75 NaH2PO4, and 11 glucose) to have a set of standards from 1 to 300 ng/mL. […] Calibration standard samples using verapamil were prepared for each batch of samples ranging from 1 to 300 ng/mL and injected at both the beginning and end of the sample sequence. The methodology for LC-MS for blood has previously been described (Da Silva et al., [2016]; Guiraud et al., [2017]). Separation and analysis were performed on a LC instrument (Exion LC AD, AB SCIEX, USA) coupled to a Sciex QTRAP5500 with TurboV Ion Source (SCIEX, Concord, ON, Canada) equipped with a heated electrospray ionization (H-ESI) source. Chromatographic separation was obtained using a gradient elution on a reversed-phase Kinetex F5 (Phenomenex, Aschaffenburg, Germany) column (2.1 × 50 mm), packed with 1.7 μm diameter particles. […]

With `C[N+](C)(C)CCCCCNCC12CC3CC(CC(C3)C1)C2` [IEM-1460], the half-life is 1.97 h. Besides, the “time to plateau of blood plasma concentration” value (IP 13.5 mg/kg) is no more than 30 min. In addition, under “IP 13.5 mg/kg, average, N = 3”, the “concentration in blood plasma at plateau” value is on record as ~ 7 μg/mL. The same compound returned a concentration in blood (IP 13.5 mg/kg, converted from 7 μg/mL) of 23.8 µM. In addition, the “perilymph level as % of blood level” value (IP 13.5 mg/kg, ~2 h after injection, N = 3, 13.5 mg/kg) is on record as 17–45%. The concentration in perilymph (IP 13.5 mg/kg, ~2 h after injection, from blood level and perilymph/blood ratio, 13.5 mg/kg) was 4–11 μM and ~ 7 μM. For the same compound, the Kp (CSF relative to blood, 13.5 mg/kg, IP 13.5 mg/kg, ~2 h after injection, N = 3, read-out: CSF level as % of blood level) was 0.08 to 0.23. The Kp (perilymph relative to blood, 13.5 mg/kg, IP 13.5 mg/kg, ~2 h after injection, N = 3, read-out: perilymph level as % of blood level) is roughly 0.3.

Turning to `NCCCCCNC1(c2ccccc2)CCCCC1` [IEM-1925], the half-life was 1.13 h. Moreover, where the note is “IP 8 mg/kg”, the “LC/MS detection in perilymph or CSF” value is recorded as “did not detect significant” and the “levels detected in blood” value was “Very low levels”.
